Results reported in US20250228239A1, “MOLECULES HAVING PESTICIDAL UTILITY, AND INTERMEDIATES, COMPOSITIONS, AND PROCESSES, RELATED THERETO” (priority 2024, published 2025).
Where two headings read alike, the source gives them in different places.

Key:
Assay type in all cases: in vivo
[1] = tested on: Cabbage Looper (Trichoplusia ni, TRIPNI); experiment: Bioassays on Cabbage Looper (CL), 128-well diet tray assay; details: Trichoplusia ni; for mortality at 50 µg/cm2: 168 h, second instar larvae, 50 μg/cm^2 of test molecule on artificial diet, 25° C., five to seven days, average of eight wells, read-out: CL % Control (or Mortality) rating
How it was run: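 Second-instar larvae (1–5 per well) placed on artificial diet surface-treated with 50 μg/cm^2 test molecule applied in 90:10 acetone-water and dried. Held at 25° C., 14:10 light-dark, for five to seven days. Percent mortality scored per well and averaged over eight wells.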

[2] = tested on: Beet Armyworm (Spodoptera exigua, LAPHEG); experiment: Bioassays on Beet Armyworm (BAW), 128-well diet tray assay; details: Spodoptera exigua; for mortality at 50 µg/cm2: 168 h, second instar larvae, 50 μg/cm^2 of test molecule on artificial diet, 25° C., five to seven days, average of eight wells, read-out: BAW % Control (or Mortality) rating
How it was run: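 Percent larval mortality, averaged across eight wells, scored after five to seven days at 25° C. under 14:10 light-dark. Each well held one to five second instars feeding on diet dosed at 50 μg/cm^2 with compound from 90:10 acetone-water, solvent dried off.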

[3] = tested on: Yellow Fever Mosquito (Aedes aegypti, AEDSAE); details: for YFM rating: Table ABC / ABC-DP rating; for YFM % Control (or Mortality) rating: about 1 day-old larvae, 4000 ppm master solution diluted with 90:10 water/acetone, 15 μL per well plus 220 μL larval mixture, 3 days
How it was run: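 Compounds from 4000 ppm DMSO stocks were diluted in 90:10 water/acetone and dispensed into wells, then infested with about 1-day-old larvae in liver-powder water. Covered plates were held at room temperature for 3 days and each well was scored for mortality against a rating scale; six replicate plates per compound.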

[4] = Table ABC: Biological Results, species CL, read-out: CL
[5] = Table ABC: Biological Results, species BAW, read-out: BAW
[6] = Table ABC: Biological Results, species YFM
[7] = Cabbage Looper, rating class, read-out: CL
[8] = Beet Armyworm, rating class, read-out: BAW
[9] = Yellow Fever Mosquito, rating class
[10] = Cabbage Looper, Table ABC / ABC-DP rating, read-out: CL rating
[11] = Beet Armyworm, Table ABC / ABC-DP rating, read-out: BAW rating

SMILES: Cc1cc(NC(=O)C(F)F)ccc1NC(=O)c1cc(NC(=O)[C@H]2[C@H](c3ccc(Cl)c(Cl)c3)C2(Cl)Cl)ccc1Cl (relative stereo) [F1062, trans-2-Chloro-5-(2,2-dichloro-3-(3,4-dichlorophenyl)cyclopropane-1-carboxamido)-N-(4-(2,2-difluoroacetamido)-2-methylphenyl)benzamide]
- pest or weed control at 50 µg/cm2 [1, 4]: 50 to 100%
- pest or weed control at 50 µg/cm2 [2, 5]: 50 to 100%
- YFM [3, 6]: A (80–100)

SMILES: Cc1c(NC(=O)c2cc(NC(=O)[C@H]3[C@H](c4ccc(F)c(C(F)(F)F)c4)C3(Cl)Cl)ccc2Cl)ccc(NC(=O)C(F)(F)F)c1C [F1392, 2-Chloro-5-((1R,3R)-2,2-dichloro-3-(4-fluoro-3-(trifluoromethyl)phenyl)cyclopropane-1-carboxamido)-N-(2,3-dimethyl-4-(2,2,2-trifluoroacetamido)phenyl)benzamide]
- pest or weed control at 50 µg/cm2 [1, 7]: 50 to 100%
- pest or weed control at 50 µg/cm2 [2, 8]: 50 to 100%
- YFM [3, 9]: A (80–100)

SMILES: CC(C)(C)OC(=O)N(C(=O)OC(C)(C)C)c1c(F)ccc(NC(=O)c2cc(NC(=O)[C@H]3[C@H](c4ccc(F)c(Br)c4)C3(Cl)Cl)ccc2Cl)c1F [F1776, tert-Butyl N-[3-[[5-[[(1R,3R)-3-(3-bromo-4-fluoro-phenyl)-2,2-dichloro-cyclopropanecarbonyl]amino]-2-chloro-benzoyl]amino]-2,6-difluoro-phenyl]-N-tert-butoxycarbonyl-carbamate]
- pest or weed control at 50 µg/cm2 [1, 10]: 50 to 100%
- pest or weed control at 50 µg/cm2 [2, 11]: 50 to 100%
- YFM rating ([3]; Yellow Fever Mosquito): A (80–100)

SMILES: Cc1cc(NC(=O)[C@H]2[C@H](c3ccc(F)c(Cl)c3)C2(Cl)Cl)cc(C(=O)NCC(F)(F)F)c1F (relative stereo) [F2030, trans-5-(2,2-Dichloro-3-(3-chloro-4-fluorophenyl)cyclopropane-1-carboxamido)-2-fluoro-3-methyl-N-(2,2,2-trifluoroethyl)benzamide]
- pest or weed control at 50 µg/cm2 [1, 10]: 50 to 100%
- pest or weed control at 50 µg/cm2 [2, 11]: 50 to 100%
- YFM rating ([3]; Yellow Fever Mosquito): A (80–100)

SMILES: O=C(Nc1ccc(F)c(NC(=O)C(F)F)c1F)c1cc(NC(=O)[C@H]2[C@H](c3cccc(F)c3)C2(Cl)Cl)ccc1Cl (relative stereo) [F1602, trans-2-Chloro-5-(2,2-dichloro-3-(3-fluorophenyl)cyclopropane-1-carboxamido)-N-(3-(2,2-difluoroacetamido)-2,4-difluorophenyl)benzamide]
- pest or weed control at 50 µg/cm2 [1, 7]: 50 to 100%
- pest or weed control at 50 µg/cm2 [2, 8]: 50 to 100%
- YFM [3, 9]: A (80–100)

SMILES: N#Cc1ccccc1NNC(=O)c1cc(NC(=O)[C@H]2[C@H](c3cc(Cl)cc(Cl)c3)C2(Cl)Cl)ccc1Cl (relative stereo) [F2576, trans-2,2-Dichloro-N-(4-chloro-3-(2-(2-cyanophenyl)hydrazine-1-carbonyl)phenyl)-3-(3,5-dichlorophenyl)cyclopropane-1-carboxamide]
- mortality at 50 µg/cm2 [1]: 50 to 100%
- pest or weed control at 50 µg/cm2 [1, 10]: 50 to 100%
- mortality at 50 µg/cm2 [2]: 50 to 100%
- pest or weed control at 50 µg/cm2 [2, 11]: 50 to 100%
- YFM rating ([3]; Yellow Fever Mosquito): A (80–100)
- YFM % Control (or Mortality) rating [3]: A (80–100)

SMILES: C=Cc1c(F)ccc(NC(=O)c2cc(NC(=O)[C@H]3[C@H](c4cc(Cl)cc(Cl)c4)C3(Cl)Cl)ccc2Cl)c1F (relative stereo) [F1314, trans-2-Chloro-5-(2,2-dichloro-3-(3,5-dichlorophenyl)cyclopropane-1-carboxamido)-N-(2,4-difluoro-3-vinylphenyl)benzamide]
- pest or weed control at 50 µg/cm2 [1, 4]: 50 to 100%
- pest or weed control at 50 µg/cm2 [2, 5]: 50 to 100%
- YFM [3, 6]: A (80–100)

SMILES: CC(=O)NCCCCNC(=O)c1cc(NC(=O)[C@H]2[C@H](c3cc(Cl)cc(Cl)c3)C2(Cl)Cl)ccc1Cl (relative stereo) [F2068, trans-N-(4-Acetamidobutyl)-2-chloro-5-(2,2-dichloro-3-(3,5-dichlorophenyl)cyclopropane-1-carboxamido)benzamide]
- pest or weed control at 50 µg/cm2 [1, 10]: 50 to 100%
- pest or weed control at 50 µg/cm2 [2, 11]: 50 to 100%
- YFM rating ([3]; Yellow Fever Mosquito): A (80–100)

SMILES: COCC(=O)Nc1c(F)ccc(NC(=O)c2cc(NC(=O)[C@H]3[C@H](c4ccc(Cl)c(Cl)c4)C3(Cl)Cl)ccc2Cl)c1F [F1254, 2-Chloro-5-((1R,3R)-2,2-dichloro-3-(3,4-dichlorophenyl)cyclopropane-1-carboxamido)-N-(2,4-difluoro-3-(2-methoxyacetamido)phenyl)benzamide]
- pest or weed control at 50 µg/cm2 [1, 4]: 50 to 100%
- pest or weed control at 50 µg/cm2 [2, 5]: 50 to 100%
- YFM [3, 6]: A (80–100)

SMILES: Nc1c(F)ccc(NC(=O)c2cc(NC(=O)[C@H]3[C@H](c4cccc(S(F)(F)(F)(F)F)c4)C3(Cl)Cl)ccc2Cl)c1F (relative stereo) [F1143, trans-N-(3-Amino-2,4-difluorophenyl)-2-chloro-5-(2,2-dichloro-3-(3-(pentafluoro-λ^6-sulfanyl)phenyl)cyclopropane-1-carboxamido)benzamide]
- pest or weed control at 50 µg/cm2 [1, 4]: 50 to 100%
- pest or weed control at 50 µg/cm2 [2, 5]: 50 to 100%
- YFM [3, 6]: A (80–100)

SMILES: CC(Br)CC(=O)Nc1c(F)ccc(NC(=O)c2cc(NC(=O)[C@H]3[C@H](c4ccc(F)c(C(F)(F)F)c4)C3(Cl)Cl)ccc2Cl)c1F (stereo partly drawn) [F1853, N-(3-(3-Bromobutanamido)-2,4-difluorophenyl)-2-chloro-5-((1R,3R)-2,2-dichloro-3-(4-fluoro-3-(trifluoromethyl)phenyl)cyclopropane-1-carboxamido)benzamide]
- pest or weed control at 50 µg/cm2 [1, 10]: 50 to 100%
- pest or weed control at 50 µg/cm2 [2, 11]: 50 to 100%
- YFM rating ([3]; Yellow Fever Mosquito): A (80–100)

SMILES: CC(=O)Nc1c(F)ccc(NC(=O)c2cc(NC(=O)[C@H]3[C@H](c4ccc(Cl)c(Cl)c4)C3(Cl)Cl)cc(F)c2F)c1F [F1442, N-(3-Acetamido-2,4-difluorophenyl)-5-((1R,3R)-2,2-dichloro-3-(3,4-dichlorophenyl)cyclopropane-1-carboxamido)-2,3-difluorobenzamide]
- pest or weed control at 50 µg/cm2 [1, 7]: 50 to 100%
- pest or weed control at 50 µg/cm2 [2, 8]: 50 to 100%
- YFM [3, 9]: A (80–100)

SMILES: CC(OC(F)(F)F)C(=O)Nc1c(F)ccc(NC(=O)c2cc(NC(=O)[C@H]3[C@H](c4ccc(F)c(C(F)(F)F)c4)C3(Cl)Cl)ccc2Cl)c1F (stereo partly drawn) [F1771, 2-Chloro-5-((1R,3R)-2,2-dichloro-3-(4-fluoro-3-(trifluoromethyl)phenyl)cyclopropane-1-carboxamido)-N-(2,4-difluoro-3-(2-(trifluoromethoxy)propanamido)phenyl)benzamide]
- pest or weed control at 50 µg/cm2 [1, 10]: 50 to 100%
- pest or weed control at 50 µg/cm2 [2, 11]: 50 to 100%
- YFM rating ([3]; Yellow Fever Mosquito): A (80–100)

SMILES: CN(C(=O)c1cc(NC(=O)[C@H]2[C@H](c3ccc(Cl)c(Cl)c3)C2(Cl)Cl)ccc1Cl)c1ccc(F)c(NC(=O)COC(F)(F)F)c1F [F1793, 2-Chloro-5-((1R,3R)-2,2-dichloro-3-(3,4-dichlorophenyl)cyclopropane-1-carboxamido)-N-(2,4-difluoro-3-(2-(trifluoromethoxy)acetamido)phenyl)-N-methylbenzamide]
- pest or weed control at 50 µg/cm2 [1, 10]: 50 to 100%
- pest or weed control at 50 µg/cm2 [2, 11]: 50 to 100%
- YFM rating ([3]; Yellow Fever Mosquito): A (80–100)

SMILES: Nc1c(F)ccc(NC(=O)c2cc(NC(=O)[C@H]3[C@H](c4cc(F)cc(C(F)(F)F)c4)C3(Cl)Cl)ccc2Cl)c1F [F1687, N-(3-Amino-2,4-difluorophenyl)-2-chloro-5-((1R,3R)-2,2-dichloro-3-(3-fluoro-5-(trifluoromethyl)phenyl)cyclopropane-1-carboxamido)benzamide]
- pest or weed control at 50 µg/cm2 [1, 7]: 50 to 100%
- pest or weed control at 50 µg/cm2 [2, 8]: 50 to 100%
- YFM [3, 9]: A (80–100)

SMILES: O=C(Nc1ccc(F)c(NC(=O)C(F)(F)F)c1)c1cc(NC(=O)[C@H]2[C@H](c3ccc(F)c(C(F)(F)F)c3)C2(Cl)Cl)ccc1Cl [F1815, 2-Chloro-5-((1R,3R)-2,2-dichloro-3-(4-fluoro-3-(trifluoromethyl)phenyl)cyclopropane-1-carboxamido)-N-(4-fluoro-3-(2,2,2-trifluoroacetamido)phenyl)benzamide]
- pest or weed control at 50 µg/cm2 [1, 10]: 50 to 100%
- pest or weed control at 50 µg/cm2 [2, 11]: 50 to 100%
- YFM rating ([3]; Yellow Fever Mosquito): A (80–100)

SMILES: Cc1c(Cl)cc(NC(=O)[C@H]2[C@H](c3ccc(F)c(Cl)c3)C2(Cl)Cl)cc1C(=O)NCCCCl (relative stereo) [F2044, trans-3-Chloro-N-(3-chloropropyl)-5-(2,2-dichloro-3-(3-chloro-4-fluorophenyl)cyclopropane-1-carboxamido)-2-methylbenzamide]
- pest or weed control at 50 µg/cm2 [1, 10]: 50 to 100%
- pest or weed control at 50 µg/cm2 [2, 11]: 50 to 100%
- YFM rating ([3]; Yellow Fever Mosquito): A (80–100)

SMILES: O=C(NNc1cccc(C(F)(F)F)c1)c1cc(NC(=O)[C@H]2[C@H](c3cc(Cl)cc(Cl)c3)C2(Cl)Cl)ccc1Cl (relative stereo) [F2572, trans-2,2-Dichloro-N-(4-chloro-3-(2-(3-(trifluoromethyl)phenyl)hydrazine-1-carbonyl)phenyl)-3-(3,5-dichlorophenyl)cyclopropane-1-carboxamide]
- mortality at 50 µg/cm2 [1]: 50 to 100%
- pest or weed control at 50 µg/cm2 [1, 10]: 50 to 100%
- mortality at 50 µg/cm2 [2]: 50 to 100%
- pest or weed control at 50 µg/cm2 [2, 11]: 50 to 100%
- YFM rating ([3]; Yellow Fever Mosquito): A (80–100)
- YFM % Control (or Mortality) rating [3]: A (80–100)
